This passage reports MIC, Ratio and MCC results from ChEMBL document CHEMBL4699440, “Comprehensive review on the anti-bacterial activity of 1,2,3-triazole hybrids” (Eur J Med Chem, 2019).

Converted amounts (≈) assume the structure as drawn. Numbered stars: 1 amine (or outer) side, 2 acyl side, 3 side chain; on linkers, the order of the positions; unused ones are H or OH. Square brackets hold non-standard residues; d marks the D form. Peptide text beside a SMILES is read from it. * marks the point of attachment. X1 = CC(C)(C(=O)c1ccc(C(F)(F)F)cc1)C(=O)*; βPro(3R) = O=C([C@@H]1CCN([*:1])C1)[*:2]; Phe(ol) = N[C@H](CO)Cc1ccccc1; Aib = CC(C)(N)C(=O)O

Series [1] has as its system Pseudomonas aeruginosa. The experiment in a line: Antibacterial activity against Pseudomonas aeruginosa MTCC 424 incubated for 24 hrs by two-fold serial dilution method. In kind it is functional.
Series [2] has as its system Bacillus subtilis. The experiment in a line: Potency index, ratio of ciprofloxacin MIC to test compound MIC for antimicrobial activity against Bacillus subtilis MTCC 441 incubated for 24 hrs by two-fold serial dilution method. It counts as functional.
In series [3] the test system is Staphylococcus aureus. The experiment in a line: Antibacterial activity against Staphylococcus aureus MTCC 7443 incubated for 24 hrs by two-fold serial dilution method. It counts as functional.
For series [4], the system named is Pseudomonas aeruginosa. The experiment in a line: Potency index, ratio of ciprofloxacin MIC to test compound MIC for antimicrobial activity against Pseudomonas aeruginosa MTCC 424 incubated for 24 hrs by two-fold serial dilution method. In kind it is functional.
The subject of another series is Aspergillus brasiliensis. The experiment in a line: Antifungal activity against Aspergillus brasiliensis MTCC 1344 incubated for 7 days by microdilution method. In kind it is functional. The conditions noted are these: MTCC 1344, 168 h, time 7 day.
The test system of a further series is Candida albicans. The experiment in a line: Antifungal activity against Candida albicans MTCC 227 incubated for 2 days by microdilution method. The conditions noted are these: MTCC 227, 48 h, time 2 day. It counts as functional. For orientation: Broth dilution looks for growth in wells or tubes with falling amounts of substance.
Series [5] deals with Escherichia coli. The experiment in a line: Potency index, ratio of ciprofloxacin MIC to test compound MIC for antimicrobial activity against Escherichia coli MTCC 1652 incubated for […] by two-fold serial dilution method. It counts as functional.
In series [6] the test system is Staphylococcus aureus. The experiment in a line: Potency index, ratio of ciprofloxacin MIC to test compound MIC for antimicrobial activity against Staphylococcus aureus MTCC 7443 incubated for 24 hrs by two-fold serial dilution method. It counts as functional.
Series [7] relates to Bacillus subtilis. The experiment in a line: Antibacterial activity against Bacillus subtilis MTCC 441 incubated for 24 hrs by two-fold serial dilution method. It counts as functional.
A short description of series [8]: Cytotoxicity against human KB cells. As to conditions: human, KB cells; read-out: MIC. It counts as cell-based.
The test system of series [9] is Escherichia coli. The experiment in a line: Antibacterial activity against Escherichia coli ATCC 25922 incubated for 24 hrs by broth dilution method. It counts as functional.
A further series relates to Proteus vulgaris. The experiment in a line: Antibacterial activity against Proteus vulgaris ATCC 3851 incubated for 24 hrs by broth dilution method. It counts as functional.
For series [10], the system named is Staphylococcus aureus. The experiment in a line: Antibacterial activity against Staphylococcus aureus ATCC 6538p incubated for 24 hrs by broth dilution method. It counts as functional.
The test system of a further series is Salmonella typhimurium. The experiment in a line: Antibacterial activity against Salmonella typhimurium ATCC 14028 incubated for 24 hrs by broth dilution method. The conditions noted are these: Salmonella enterica. In kind it is functional, Salmonella enterica subsp. enterica serovar Typhimurium.
In the next series the test system is Bacillus spizizenii. The experiment in a line: Antibacterial activity against Bacillus subtilis ATCC 6633 incubated for 24 hrs by broth dilution method. It counts as functional.
In the next series the test system is Micrococcus luteus. The experiment in a line: Antibacterial activity against Micrococcus luteus IFC 12708 incubated for 24 hrs by broth dilution method. It counts as functional.

Regarding `O=C(Cn1cc(COc2ccc(OCc3cn(CC(=O)Nc4ccc([N+](=O)[O-])cc4)nn3)cc2)nn1)Nc1ccc([N+](=O)[O-])cc1`, the minimal inhibitory concentration (MIC) against Pseudomonas aeruginosa [1], against Staphylococcus aureus [3], with Aspergillus brasiliensis, in the series with Candida albicans and against Bacillus subtilis [7] was 0.0199 µM (≈ 0.0125 µg/mL) throughout. Also, the Ratio in the series on Bacillus subtilis [2], with Pseudomonas aeruginosa [4], with Escherichia coli [5] and in the series with Staphylococcus aureus [6] was 2 in each case.

For `CC(C)C[C@H](NC(=O)CNC(=O)C(C)(C)NC(=O)[C@@H](NC(=O)C(C)(C)NC(=O)[C@H](CCC(N)=O)NC(=O)[C@H](C)NC(=O)C(C)(C)NC(=O)[C@H](C)NC(=O)C(C)(C)NC(=O)[C@@H]1CCN(C(=O)C(C)(C)C(=O)c2ccc(C(F)(F)F)cc2)C1)C(C)C)C(=O)NC(C)(C)C(=O)N1CCC[C@H]1C(=O)N[C@H](C(=O)NC(C)(C)C(=O)NC(C)(C)C(=O)N[C@@H](CCC(N)=O)C(=O)N[C@@H](CCC(N)=O)C(=O)N[C@H](CO)Cc1ccccc1)C(C)C` (X1-[βPro(3R)][Aib]A[Aib]AQ[Aib]V[Aib]GL[Aib]PV[Aib][Aib]QQ[Phe(ol)]), the MCC in series [8] is 2.9 µg/mL.

For the molecule `CC1(C)O[C@H]2O[C@@H]([C@H]3SC(Cc4nc5ccccc5[nH]4)C(=O)N3c3ccc(Cl)cc3)[C@@H](OCc3cn(-c4ccc(Cl)cc4)nn3)[C@H]2O1` (stereo partly specified), the MIC against Escherichia coli [9], in the series on Proteus vulgaris, with Staphylococcus aureus [10], against Salmonella typhimurium, in the series on Bacillus spizizenii and with Micrococcus luteus was 1.56 µg/mL (≈ 2.25 µM) throughout.

For orientation: MIC means the smallest concentration in the dilution series that meets the test's criterion for growth inhibition. Low values mean a more susceptible organism, high ones a less susceptible organism.
